According to US20100267637A1, “TREATMENT OF MELANOMA WITH ALPHA THYMOSIN PEPTIDES IN COMBINATION WITH A KINASE INHIBITOR” (SciClone Pharmaceuticals, Inc., priority 2007, published 2010):
Where no end group is shown, it is not given here.

System: murine B16 melanoma cells
Assay: Anti-tumor effect: tumor size / tumor volume in mice bearing subcutaneous B16 melanoma
Assay type: in vivo, C57BL/6 mice
Design: key to Tumor measurement L (length) / Tumor measurement W (width): The sign “—” indicates that tumor does not reach a measurable size
Details: for Tumor Volume (cm^3) (Mean ± SD): group mean; for PI (TV), percent inhibition of tumor volume: vs vehicle; for Tumor volumes on Day 15: Length × Width × Width/2
Method: The toxic effects of the dosing regimens were also monitored. […] Meanwhile 9H10 was given in two groups via i.p. on Day 3, 6 and 9. […] Tumor volume and body weight were measured every three days, and tumor weights were measured on Day 16 at the end of the study.
As per aseptic tissue culture procedures, one vial of B16 melanoma cells was removed from the liquid nitrogen stock, and placed into a 37° C. water bath. Gentle swirling was conducted until the content of the vial was thawed. Using tissue culture/sterile procedures, the cells were immediately centrifuged with a TD5A-WS centrifuge at 1000 rpm, 20-25° C., 5 min. After centrifugation, the cells were suspended in 0.1 to 0.5 mL normal saline (NS) and subcutaneously injected into 10 mice (0.1 mL/mouse, about 1×10^6 cells). After 7-10 days, when the tumor diameter was approximately 1 cm, the animals were euthanized with CO2 overdose and the tumors excised. The procedure was repeated with 20 mice to generate a sufficient number of B16 melanoma cells with adequate transplantability.
On the day of tumor implantation, approximately 1×10^6 cells in 0.1 mL were subcutaneously injected on the right axillary area of each mouse. The day of tumor implantation was defined as Day 0.
On Day 3, the animals were randomly assigned into nine different weight-matched and tumor-size-matched groups. Dosing was started on Day 3 using the regimen according to Table 2.
From Day 1 to Day 15, mortality and moribundity were checked twice daily, the body weights were recorded once every 3 days, and tumors were measured using a caliper once every 3 days. At the end of the study (Day 16), the animals were euthanized by CO2 asphyxiation, and the tumors were excised and weighed.
Based on the tumor size, the tumor volume (TV) was calculated with the formula: [TV=(Length×Width×Width)/2]. And the percent inhibition (PI) of TV (PITV) was calculated according to the equation below:
PITV(%)=(TV vehicle−TVdrug treated)/TV vehicle×100
Inter-group comparison was performed in terms of tumor volume, tumor weight and body weight, using a student's t test. P values of less than 0.05 were considered to be statistically significant.

Thymosin Alpha-1 (Ac-SDAAVDTSSEITTKDLKEKKEVVEEAEN; ends and bridges not checked; UniProt P06454 2-29, looked up) [TA-1, 28 amino acid peptide, immunomodulator; test article (SciClone), 6 mg/kg s.c. daily]
0.009 ± 0.0192 cm^3: Tumor Volume (cm^3) (Mean ± SD) (Day 9)
0.4050 cm^3: Tumor volumes on Day 15 (Day 15, animal M4)
1.00 cm: Tumor measurements on Day 15, L (Day 15, animal F4) | Tumor measurements on Day 15, L (Day 15, animal M2) | Tumor measurements on Day 15, W (Day 15, animal M2) | Tumor measurements on Day 15, L (Day 15, animal M3) | Tumor measurements on Day 15, W (Day 15, animal M3) | Tumor measurements on Day 15, L (Day 15, animal M4) | Tumor measurements on Day 15, L (Day 15, animal M5) | Tumor measurements on Day 15, W (Day 15, animal M5)
—: Tumor measurement L (length) (Day 3, animal F1) | Tumor measurement W (width) (Day 3, animal F1) | Tumor measurement L (length) (Day 3, animal F2) | Tumor measurement W (width) (Day 3, animal F2) | Tumor measurement L (length) (Day 3, animal F3) | Tumor measurement W (width) (Day 3, animal F3) | Tumor measurement L (length) (Day 3, animal F5) | Tumor measurement W (width) (Day 3, animal F5) | Tumor measurement L (length) (Day 3, animal M1) | Tumor measurement W (width) (Day 3, animal M1) | Tumor measurement L (length) (Day 3, animal M2) | Tumor measurement W (width) (Day 3, animal M2) | Tumor measurement L (length) (Day 3, animal M3) | Tumor measurement W (width) (Day 3, animal M3) | Tumor measurement L (length) (Day 3, animal M4) | Tumor measurement W (width) (Day 3, animal M4) | Tumor measurement L (length) (Day 3, animal M5) | Tumor measurement W (width) (Day 3, animal M5) | Tumor measurement L (length) (Day 6, animal F1) | Tumor measurement W (width) (Day 6, animal F1) | Tumor measurement L (length) (Day 6, animal F2) | Tumor measurement W (width) (Day 6, animal F2) | Tumor measurement L (length) (Day 6, animal F3) | Tumor measurement W (width) (Day 6, animal F3) | Tumor measurement L (length) (Day 6, animal F4) | Tumor measurement W (width) (Day 6, animal F4) | Tumor measurement L (length) (Day 6, animal F5) | Tumor measurement W (width) (Day 6, animal F5) | Tumor measurement L (length) (Day 6, animal M1) | Tumor measurement W (width) (Day 6, animal M1) | Tumor measurement L (length) (Day 6, animal M2) | Tumor measurement W (width) (Day 6, animal M2) | Tumor measurement L (length) (Day 6, animal M3) | Tumor measurement W (width) (Day 6, animal M3) | Tumor measurement L (length) (Day 6, animal M4) | Tumor measurement W (width) (Day 6, animal M4) | Tumor measurement L (length) (Day 6, animal M5) | Tumor measurement W (width) (Day 6, animal M5)
0.0625 cm^3: Tumor volume (Day 9, animal M3) | Tumor volume (Day 12, animal F1) | Tumor volume (Day 12, animal F2) | Tumor volume (Day 12, animal F3) | Tumor volume (Day 12, animal M1) | Tumor volume (Day 12, animal M4)
59.58%: PI (TV), percent inhibition of tumor volume (Day 12)
0.0135 cm^3: Tumor volume (Day 9, animal M5) | Tumor volumes on Day 15 (Day 15, animal F5)
0.10 cm: Tumor measurement L (length) (Day 3, animal F4) | Tumor measurement W (width) (Day 3, animal F4) | Tumor measurement L (length) (Day 9, animal F1) | Tumor measurement W (width) (Day 9, animal F1) | Tumor measurement L (length) (Day 9, animal F2) | Tumor measurement W (width) (Day 9, animal F2) | Tumor measurement L (length) (Day 9, animal F3) | Tumor measurement W (width) (Day 9, animal F3) | Tumor measurement L (length) (Day 9, animal M1) | Tumor measurement W (width) (Day 9, animal M1) | Tumor measurements on Day 12, L (Day 12, animal F5) | Tumor measurements on Day 12, W (Day 12, animal F5)
0.70 cm: Tumor measurements on Day 12, L (Day 12, animal F4) | Tumor measurements on Day 12, W (Day 12, animal F4) | Tumor measurements on Day 12, L (Day 12, animal M2) | Tumor measurements on Day 12, W (Day 12, animal M2) | Tumor measurements on Day 15, L (Day 15, animal F1) | Tumor measurements on Day 15, W (Day 15, animal F1) | Tumor measurements on Day 15, L (Day 15, animal F2) | Tumor measurements on Day 15, W (Day 15, animal F4) | Tumor measurements on Day 15, L (Day 15, animal M1) | Tumor measurements on Day 15, W (Day 15, animal M1)
0.0000 cm^3: Tumor volume (Day 3, animal F1) | Tumor volume (Day 3, animal F2) | Tumor volume (Day 3, animal F3) | Tumor volume (Day 3, animal F5) | Tumor volume (Day 3, animal M1) | Tumor volume (Day 3, animal M2) | Tumor volume (Day 3, animal M3) | Tumor volume (Day 3, animal M4) | Tumor volume (Day 3, animal M5) | Tumor volume (Day 6, animal F1) | Tumor volume (Day 6, animal F2) | Tumor volume (Day 6, animal F3) | Tumor volume (Day 6, animal F4) | Tumor volume (Day 6, animal F5) | Tumor volume (Day 6, animal M1) | Tumor volume (Day 6, animal M2) | Tumor volume (Day 6, animal M3) | Tumor volume (Day 6, animal M4) | Tumor volume (Day 6, animal M5) | Tumor volume (Day 9, animal F5)
62.57%: PI (TV), percent inhibition of tumor volume (Day 15)
0.139 ± 0.1301 cm^3: Tumor Volume (cm^3) (Mean ± SD) (Day 12)
50-60%: reduction of mean tumor volume in comparison to vehicle control (throughout the course of the study, 6 mg/kg s.c. daily)
effective against the tumor growth: effect on tumor growth in words (daily dosing Days 3-15)
0.60 cm: Tumor measurements on Day 15, W (Day 15, animal F2) | Tumor measurements on Day 15, L (Day 15, animal F3) | Tumor measurements on Day 15, W (Day 15, animal F3)
0.90 cm: Tumor measurements on Day 12, L (Day 12, animal M3) | Tumor measurements on Day 12, W (Day 12, animal M3) | Tumor measurements on Day 12, L (Day 12, animal M5) | Tumor measurements on Day 12, W (Day 12, animal M5) | Tumor measurements on Day 15, W (Day 15, animal M4)
0.1080 cm^3: Tumor volumes on Day 15 (Day 15, animal F3)
0.2450 cm^3: Tumor volumes on Day 15 (Day 15, animal F4)
0.000 ± 0.0000 cm^3: Tumor Volume (cm^3) (Mean ± SD) (Day 6)
0.50 cm: Tumor measurement L (length) (Day 9, animal M3) | Tumor measurement W (width) (Day 9, animal M3) | Tumor measurements on Day 12, L (Day 12, animal F1) | Tumor measurements on Day 12, W (Day 12, animal F1) | Tumor measurements on Day 12, L (Day 12, animal F2) | Tumor measurements on Day 12, W (Day 12, animal F2) | Tumor measurements on Day 12, L (Day 12, animal F3) | Tumor measurements on Day 12, W (Day 12, animal F3) | Tumor measurements on Day 12, L (Day 12, animal M1) | Tumor measurements on Day 12, W (Day 12, animal M1) | Tumor measurements on Day 12, L (Day 12, animal M4) | Tumor measurements on Day 12, W (Day 12, animal M4)
0.3645 cm^3: Tumor volume (Day 12, animal M3) | Tumor volume (Day 12, animal M5)
0.000 ± 0.0002 cm^3: Tumor Volume (cm^3) (Mean ± SD) (Day 3)
0.30 cm: Tumor measurement L (length) (Day 9, animal M5) | Tumor measurement W (width) (Day 9, animal M5) | Tumor measurements on Day 15, L (Day 15, animal F5) | Tumor measurements on Day 15, W (Day 15, animal F5)
50.00%: PI (TV), percent inhibition of tumor volume (Day 3)
56.73%: PI (TV), percent inhibition of tumor volume (Day 9)
0.0005 cm^3: Tumor volume (Day 3, animal F4) | Tumor volume (Day 9, animal F1) | Tumor volume (Day 9, animal F2) | Tumor volume (Day 9, animal F3) | Tumor volume (Day 9, animal M1) | Tumor volume (Day 12, animal F5)
0.5000 cm^3: Tumor volumes on Day 15 (Day 15, animal M2) | Tumor volumes on Day 15 (Day 15, animal M3) | Tumor volumes on Day 15 (Day 15, animal M5)
100.00%: PI (TV), percent inhibition of tumor volume (Day 6)
0.1715 cm^3: Tumor volume (Day 12, animal F4) | Tumor volume (Day 12, animal M2) | Tumor volumes on Day 15 (Day 15, animal F1) | Tumor volumes on Day 15 (Day 15, animal M1)
0.20 cm: Tumor measurement L (length) (Day 9, animal F4) | Tumor measurement W (width) (Day 9, animal F4) | Tumor measurement L (length) (Day 9, animal M2) | Tumor measurement W (width) (Day 9, animal M2) | Tumor measurement L (length) (Day 9, animal M4) | Tumor measurement W (width) (Day 9, animal M4)
0.274 ± 0.1855 cm^3: Tumor Volume (cm^3) (Mean ± SD) (Day 15)
0.0040 cm^3: Tumor volume (Day 9, animal F4) | Tumor volume (Day 9, animal M2) | Tumor volume (Day 9, animal M4)
0.1260 cm^3: Tumor volumes on Day 15 (Day 15, animal F2)
